Laboratory results taken from US20120065152A1 (SHIRE LLC, priority 2010, published 2012).
“And” between values parts separate entries of the source, which are not always exact repeats. Equal values may be shown once.

Legend:
[1] = Comparative bioavailability study of guanfacine in monkeys given guanfacine or guanfacine prodrug; assay type: in vivo, monkey; details: for Prodrug Cmax: monkeys, 0.5 mg/kg guanfacine free base equivalents
Experimental: Blood samples were taken at various times after administration and submitted to analysis for the parent drug and prodrug using a qualified LC-MS-MS assay. The following pharmacokinetic parameters derived from the plasma analytical data were determined using Win Nonlin;

[2] = Stability studies on guanfacine prodrugs in buffers; assay type: physicochemical
[3] = DMSO, organic solvent or mixture, Solubility, in DMSO
[4] = water/CH3CN (1:1), aqueous with cosolvent or surfactant or cyclodextrin, Solubility, in water/CH3CN (1:1)
[5] = pH 1.2, 37° C., 0.1M HCl/NaCl buffer, 1 h
[6] = pH 1.2, 37° C., 0.1M HCl/NaCl buffer, time 0
[7] = pH 3.0, 20° C., 0.1M citrate buffer, 2 h
[8] = pH 3.0, 20° C., 0.1M citrate buffer, time 0
[9] = pH 6.8, 37° C., 0.1M phosphate buffer, 2 h
[10] = pH 6.8, 37° C., 0.1M phosphate buffer, time 0
[11] = pH 7.4, 37° C., 0.1M phosphate buffer, 2 h
[12] = pH 7.4, 37° C., 0.1M phosphate buffer, time 0
[13] = pH 1.2, 37° C., 0.1M HCl/NaCl buffer, 1 h, Hydrochloride

| Compound | solubility (Solubility; [3]) | solubility (Solubility; water, Solubility, in water) | solubility (Solubility; [4]) | Prodrug Cmax [1] | Active drug [2, 5] | Active drug [2, 6] | Pro-drug [2, 6] | Active drug [2, 7] | Active drug [2, 8] | Pro-drug [2, 8] | Active drug [2, 9] | Active drug [2, 10] | Pro-drug [2, 10] | Active drug [2, 11] | Active drug [2, 12] | Pro-drug [2, 12] | further results |
| --- | --- | --- | --- | --- | --- | --- | --- | --- | --- | --- | --- | --- | --- | --- | --- | --- | --- |
| CCCOC(=O)NC(N)=NC(=O)Cc1c(Cl)cccc1Cl.Cl [Compound 4, 1-{N′-[2-(2,6-Dichloro-phenyl)acetyl]-guanidinocarbonyloxy}propane Hydrochloride] | > 10000 µg/mL | < 1000 µg/mL | > 1000 µg/mL | BLQ | 0.0 | 0.0 | 100 | 0.0 | 0.0 | 100 | 0.0 | 0.0 | 100 | 0.0 | 0.0 | 100 | Pro-drug ([2]; pH 1.2, 37° C., 0.1M HCl/NaCl buffer, 1 h, listed as Guanfacine N-Propyl Carbamate Hydrochloride, Hydrochloride): 94.4 and 94.6; Pro-drug ([2]; pH 3.0, 20° C., 0.1M citrate buffer, 2 h, listed as Guanfacine N-Propyl Carbamate Hydrochloride, Hydrochloride): 94.0 and 94.4; Pro-drug ([2]; pH 6.8, 37° C., 0.1M phosphate buffer, 2 h, listed as Guanfacine N-Propyl Carbamate Hydrochloride, Hydrochloride): 95.8 and 96.4; Pro-drug ([2]; pH 7.4, 37° C., 0.1M phosphate buffer, 2 h, listed as Guanfacine N-Propyl Carbamate Hydrochloride, Hydrochloride): 96.3 and 96.0 |
| CCSC(=O)NC(N)=NC(=O)Cc1c(Cl)cccc1Cl.Cl [Compound 30, Guanfacine Ethanethiol Carbamate Hydrochloride] |  |  |  | BLQ |  | 0.0 | 100 | 0.0 | 0.0 | 100 | 0.0 | 0.0 | 100 | 0.0 | 0.0 | 100 | solubility (Solubility; in DMSO): > 10000 µg/mL; solubility (Solubility; in water): < 1000 µg/mL; solubility (Solubility; in water/CH3CN (1:2)): > 5000 µg/mL; Active drug [2, 13]: 10.1 and 11.0; Pro-drug [2, 13]: 81.0 and 80.4; Pro-drug ([2]; pH 3.0, 20° C., 0.1M citrate buffer, 2 h, Hydrochloride): 85.6 and 84.8; Pro-drug ([2]; pH 6.8, 37° C., 0.1M phosphate buffer, 2 h, Hydrochloride): 93.0 and 92.5; Pro-drug ([2]; pH 7.4, 37° C., 0.1M phosphate buffer, 2 h, Hydrochloride): 94.5 and 95.2 |
| NC(=NC(=O)Cc1c(Cl)cccc1Cl)NC(=O)OCCCO [Compound 22, 3-{N′-[2-(2,6-Dichloro-phenyl)-acetyl]-guanidinocarbonyloxy}propan-1-ol] | > 10000 µg/mL | < 1000 µg/mL | > 10000 µg/mL |  | 0.0 | 0.0 | 100 | 0.0 | 0.0 | 100 | 0.0 | 0.0 | 100 | 0.0 | 0.0 | 100 | Cmax ([1]; monkey, plasma, po, 0.5 mg/kg): 3.49 ng/mL; Pro-drug ([2]; pH 1.2, 37° C., 0.1M HCl/NaCl buffer, 1 h, listed as Guanfacine (3-Hydroxypropyl) Carbamate): 94.8 and 94.9; Pro-drug ([2]; pH 3.0, 20° C., 0.1M citrate buffer, 2 h, listed as Guanfacine (3-Hydroxypropyl) Carbamate): 98.1 and 98.3; Pro-drug ([2]; pH 6.8, 37° C., 0.1M phosphate buffer, 2 h, listed as Guanfacine (3-Hydroxypropyl) Carbamate): 99.2 and 99.7; Pro-drug [2, 11]: 98.2 |
| CCCCOC(=O)NC(N)=NC(=O)Cc1c(Cl)cccc1Cl.Cl [Compound 6, 1-{N′-[2-(2,6-Dichloro-phenyl)-acetyl]-guanidinocarbonyloxy}butane Hydrochloride] | > 10000 µg/mL | < 1000 µg/mL | > 1000 µg/mL | BLQ | 0.0 | 0.0 | 100 | 0.0 | 0.0 | 100 | 0.0 | 0.0 | 100 | 0.0 | 0.0 | 100 | Pro-drug [2, 5]: 94.0; Pro-drug ([2]; pH 3.0, 20° C., 0.1M citrate buffer, 2 h, listed as Guanfacine N-Butyl Carbamate Hydrochloride, Hydrochloride): 94.6 and 94.9; Pro-drug ([2]; pH 6.8, 37° C., 0.1M phosphate buffer, 2 h, listed as Guanfacine N-Butyl Carbamate Hydrochloride, Hydrochloride): 90.9 and 90.7; Pro-drug ([2]; pH 7.4, 37° C., 0.1M phosphate buffer, 2 h, listed as Guanfacine N-Butyl Carbamate Hydrochloride, Hydrochloride): 90.7 and 91.0 |
| CC(C)OC(=O)NC(N)=NC(=O)Cc1c(Cl)cccc1Cl.Cl [Compound 5, 2-{N′-[2-(2,6-Dichloro-phenyl)acetyl]-guanidinocarbonyloxy}propane Hydrochloride] | > 10000 µg/mL | < 1000 µg/mL |  | BLQ |  |  |  |  |  |  |  |  |  |  |  |  | solubility (Solubility; 3.0 mL CH3CN/3.0 mL H2O, aqueous with cosolvent or surfactant or cyclodextrin, Solubility, in 3.0 mL CH3CN/3.0 mL H2O): > 833 µg/mL |
